Results as given in paper PMC5990611, “An in Vitro Assay of hERG K^+ Channel Potency for a New EGFR Inhibitor FHND004” (Frontiers in Pharmacology, 2018).

Assay: In vivo pharmacokinetic assay in male SD rats
Details: rat, serum, data not shown, read-out: maximum serum concentration (Cmax)

`C=CC(=O)Nc1cc(Nc2nccc(-c3cn(C)c4ccccc34)n2)c(OC)cc1N(C)CCN(C)C` [AZD9291] showed a Cmax of 220 nM.
